Target: upper small intestine of rabbit (Oryctolagus cuniculus, UniProt G1T803)
Conditions: from ED50, contraction activity of native motilin taken as 100%
Protocol: An intestinal contraction activity was measured by Magnus method using upper small intestine of rabbit ["J. Pharm. Pharmac.", Vol. 28, pages 650-651 (1976)], on each motilin-like polypeptides (Example 1, wherein R1 is Hse, Asp-Gly-Ile-Phe-Hse, or Arg-Ile-Phe-Hse) according to the invention, as test samples and a conventional pure [Leu^13 ]-motilin, as control sample. The activities of the test samples and control sample were compared, under assumption of that an contraction activity caused by 10^-6 M acetylcholine is 100%.

Sequence of upper small intestine of rabbit (G1T803 1-400): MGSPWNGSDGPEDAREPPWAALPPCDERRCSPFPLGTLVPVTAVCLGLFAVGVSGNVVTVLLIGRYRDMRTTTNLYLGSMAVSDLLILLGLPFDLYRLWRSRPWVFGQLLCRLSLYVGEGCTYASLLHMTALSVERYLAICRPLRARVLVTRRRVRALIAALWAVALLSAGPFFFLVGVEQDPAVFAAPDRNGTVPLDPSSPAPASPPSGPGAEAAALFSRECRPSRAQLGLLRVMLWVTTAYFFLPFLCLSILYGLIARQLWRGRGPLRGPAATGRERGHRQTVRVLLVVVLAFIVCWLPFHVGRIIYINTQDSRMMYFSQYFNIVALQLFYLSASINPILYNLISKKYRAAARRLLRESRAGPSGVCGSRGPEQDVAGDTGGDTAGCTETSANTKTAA

CC[C@H](C)[C@H](NC(=O)[C@@H]1CCCN1C(=O)[C@@H](NC(=O)[C@@H](N)Cc1ccccc1)C(C)C)C(=O)N[C@@H](Cc1ccccc1)C(=O)N[C@H](C(=O)N[C@@H](Cc1ccc(O)cc1)C(=O)NCC(=O)N[C@@H](CCC(=O)O)C(=O)N[C@@H](CC(C)C)C(=O)N[C@@H](CCC(N)=O)C(=O)N[C@@H](CCCNC(=N)N)C(=O)N[C@@H](CCSC)C(=O)N[C@@H](CCC(N)=O)C(=O)N[C@@H](CCC(=O)O)C(=O)N[C@@H](CCCCN)C(=O)N[C@@H](CCC(=O)O)C(=O)N[C@@H](CCCNC(=N)N)C(=O)N[C@@H](CC(N)=O)C(=O)N[C@@H](CCCCN)C(=O)NCC(=O)N[C@@H](CCC(N)=O)C(=O)O)[C@@H](C)O [native motilin]
Activity in vitro (%): 100%
